Measurements reported in patent US4410548A, “Propanolamine derivatives” (Reckitt & Colman Products Limited, priority 1980, dated 1983).
Counter-ions that a name gives are not always drawn. Like-named read-outs stand apart in the source and are kept apart here.

What was measured:
DOCA hypertensive rats [1] = test: antihypertensive activity (mean arterial blood pressure) after oral administration in DOCA hypertensive rats; format: in vivo, rat; settings: for maximal percent changes in MABP: DOCA rats; for MABP, maximum percent changes: Table 2 (in brackets); for MABP, summation of percent changes: Table 2
Description: (b) DOCA = Desoxycorticosterone acetate.
(c) MABP = Mean arterial blood pressure. Negative values represent falls
in blood pressure and conversely positive values increases in blood
pressure. The values of maximum percent changes are mean values taken fro
groups of 5-7 DOCA hypertensive rats.
(d) Values in the final column represent duration of action of the
relative increases and decreases in blood pressure with the respective
treatments. Group mean percent changes are added together for the times o
1, 2, 3 and 5 hours after oral dosage. […]
Values in the final column are summation of percent changes with, in
brackets the maximum percent changes.

DOCA hypertensive rats [2] = test: heart rate in DOCA hypertensive rats after oral administration; settings: both doses (5 and 50 mg/kg)
β-adrenoreceptor = biological target: T1, β-adrenoreceptor (Cavia porcellus, UniProt H0W3H1); test: antagonism of positive chronotropic responses to (-)-isoprenaline in isolated guinea-pig right atria; format: cell-based; settings: for times (±)-propranolol was more potent as an antagonist than the compound / times less active than (±)-propranolol: β-adrenoreceptor antagonism in vitro
T1 construct: isolated guinea-pig right atria; from tissue; host or cells: isolated guinea-pig right atria
T1 sequence (H0W3H1 1-470): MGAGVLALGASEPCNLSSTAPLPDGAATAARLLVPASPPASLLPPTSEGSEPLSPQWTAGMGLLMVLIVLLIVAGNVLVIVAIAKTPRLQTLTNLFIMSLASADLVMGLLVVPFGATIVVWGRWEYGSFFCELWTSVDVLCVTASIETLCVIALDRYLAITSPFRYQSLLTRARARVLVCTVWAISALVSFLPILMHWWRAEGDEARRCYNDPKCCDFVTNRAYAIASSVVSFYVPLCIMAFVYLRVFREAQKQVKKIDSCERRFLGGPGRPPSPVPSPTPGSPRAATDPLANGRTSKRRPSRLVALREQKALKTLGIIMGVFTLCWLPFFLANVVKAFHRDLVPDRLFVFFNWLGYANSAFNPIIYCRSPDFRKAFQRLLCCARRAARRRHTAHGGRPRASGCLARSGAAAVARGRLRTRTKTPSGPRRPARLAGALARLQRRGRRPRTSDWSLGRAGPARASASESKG
From the text: Tolamolol is the approved name for 1-[2-(4-carbamoylphenoxy)ethylamino]-3-(2-methylphenoxy)propan-2-ol.
The values in this table are the mean of 4-8

DOCA hypertensive rats [3] = test: toxicity / deaths seen in the antihypertensive test in DOCA rats; format: in vivo, rat; settings: oral dose 100 mg/kg
From the text: (d) With Example B in the antihypertensive test at an oral dose of 100

[4] = oral dose 50 mg/kg, mean of groups of 5-7, negative = fall
[5] = oral dose 50 mg/kg, MABP, sum of 1, 2, 3 and 5 hours after dosage
[6] = Table 1, isolated guinea-pig atria, mean of 4-8 experiments, read-out: pA2 value against chronotropic responses of isoprenaline (converted)
[7] = oral dose 100 mg/kg, mean of groups of 5-7, negative = fall
[8] = oral dose 100 mg/kg, MABP, sum of 1, 2, 3 and 5 hours after dosage
[9] = Table 2, isolated guinea-pig atria vs isoprenaline, read-out: β-Antag. pA2 (converted)

SMILES | Kb (β-adrenoreceptor; [6]) | maximal percent changes in MABP (DOCA hypertensive rats [1]; [4]) | Summation of percent changes (DOCA hypertensive rats [1]; [5]) | maximal percent changes in MABP (DOCA hypertensive rats [1]; [7]) | Summation of percent changes (DOCA hypertensive rats [1]; [8]) | MABP, maximum percent changes (DOCA hypertensive rats [1]; oral dose 100 mg/kg) | MABP, summation of percent changes (DOCA hypertensive rats [1]; oral dose 100 mg/kg) | other results
CC(C)NCC(O)COc1cccc2ccccc12 (racemic) [(±)-Propranolol] |  | +11% | +38% |  |  |  |  | effect on blood pressure (DOCA hypertensive rats [1]; 50 mg/kg, p.o.): long-lasting increase in blood pressure; maximal percent changes in MABP (DOCA hypertensive rats [1]; oral dose 5 mg/kg, fall, group mean): -5%; Summation of percent changes (DOCA hypertensive rats [1]; oral dose 5 mg/kg, fall, sum of 1, 2, 3 and 5 hours): -6%; maximal percent changes in MABP (DOCA hypertensive rats [1]; oral dose 5 mg/kg, increase, group mean): +10%; Summation of percent changes (DOCA hypertensive rats [1]; oral dose 5 mg/kg, increase, sum of 1, 2, 3 and 5 hours): +15%; effect on mean blood pressure (DOCA hypertensive rats [1]; oral, 5.0 mg/kg): small increase in mean blood pressure followed by a non-significant transient fall; effect on heart rate (DOCA hypertensive rats [2]): decreased heart rate
Cc1ccccc1OCC(O)CNCCOc1ccc(C(N)=O)cc1 (racemic) [(±)-Tolamolol, 1-[2-(4-carbamoylphenoxy)ethylamino]-3-(2-methylphenoxy)propan-2-ol] | 17 nM | -20% | -47% | -30% | -88% |  |  | relative potency as β-adrenoreceptor antagonist (β-adrenoreceptor; in vitro, among the compounds of Table 1): most potent β-adrenoreceptor antagonists tested in vitro; duration of blood pressure effect versus bradycardia (DOCA hypertensive rats [1]; oral, (±)-tolamolol): of a shorter duration than the bradycardia; effect on blood pressure (DOCA hypertensive rats [1]; oral, (±)-tolamolol): falls in blood pressure which were relatively transient
COc1cc(C)c([S+](C)[O-])cc1OCCNCC(O)COc1ccccc1C (stereo not shown) [A] |  |  |  |  |  | -37% | -127% | Kb (β-adrenoreceptor; [9]): 3160 nM
COc1cc([S+](C)[O-])c(C)cc1OCCNCC(O)COc1cccc(C)c1 (stereo not shown) [C] |  |  |  |  |  | -8% | -23% | pD'2 (β-adrenoreceptor; Table 2, in pA2 column, negative log molar concentration depressing maximum agonist response by 50%, noncompetitive): 4.3; nature of interaction with isoprenaline (β-adrenoreceptor; adrenoreceptor antagonism test): noncompetitive in nature
COc1cc([S+](C)[O-])c(C)cc1OCCNCC(O)COc1ccc(C)cc1 (stereo not shown) [D] |  |  |  |  |  | -23% | -82% | Kb (β-adrenoreceptor; [9]): 1170 nM
COc1cc([S+](C)[O-])c(C)cc1OCCNCC(O)COc1ccccc1C.O=C(O)C(=O)O (stereo not shown) [Example 1, 1-[2-(2-Methoxy-5-methyl-4-methylsulphinylphenoxy)ethylamino]-3-(2-methylphenoxy)propan-2-ol oxalate salt] | 380 nM | -37% | -137% | -47% | -170% | -47% | -170% | times (±)-propranolol was more potent as an antagonist than the compound (β-adrenoreceptor): ~20 times
COc1cc(S(C)(=O)=O)c(C)cc1OCCNCC(O)COc1ccccc1.O=C(O)C(=O)O (stereo not shown) [Example 6, 1-[2-(2-Methoxy-5-methyl-4-methylsulphonylphenoxy)ethylamino]-3-phenoxypropan-2-ol oxalate salt] | 191 nM |  |  | -35% | -127% |  |  | times (±)-propranolol was more potent as an antagonist than the compound (β-adrenoreceptor): approximately 10 times
COc1cc2c(cc1OCCNCC(O)COc1ccccc1C)CCCC[S+]2[O-] (stereo not shown) [Example 8, 1-[2-(8-Methoxy-2,3,4,5-tetrahydro-1-benzothiepin-7-oxy)ethylamino]-3-(2-methylphenoxy)propan-2-ol S-oxide oxalate salt] | 28.8 nM |  |  | -43% | -161% |  |  | times less active than (±)-propranolol (β-adrenoreceptor): 1.5 times
COc1cc([S+](C)[O-])c(OC)cc1OCCNCC(O)COc1ccccc1C.O=C(O)C(=O)O (stereo not shown) [Example 10, 1-[2-(2,5-Dimethoxy-4-methylsulphinylphenoxy)ethylamino]-3-(2-methylphenoxy)propan-2-ol oxalate salt] | 29.5 nM |  |  | -36% | -131% |  |  | times less active than (±)-propranolol (β-adrenoreceptor): 1.5 times
COc1ccc(OCCNCC(O)COc2ccccc2C)c([S+](C)[O-])c1 (stereo not shown) [Example B] |  |  |  |  |  |  |  | toxicity (MABP column) (DOCA hypertensive rats [3]; Table 2): toxic; deaths of test rats (DOCA hypertensive rats [3]; antihypertensive test): 5 of the 6 test rats died
